# Values of other authors as cited in patent WO2006030898A1, “Aldose reductase inhibitor” (Suntory Ltd, priority 2004, dated 2006).
# Molecular target: aldose reductase (Homo sapiens, UniProt P15121)
# Settings: flavonoid glycosides; no own test described
compound,measurement,value
O=c1c(O[C@@H]2O[C@H](CO)[C@@H](O)[C@H](O)[C@H]2O)c(-c2ccc(O)c(O)c2)oc2cc(O)cc(O)c12 [isoquercitrin],aldose reductase inhibitory action (in words),have an aldose reductase inhibitory action
